Experimental findings from patent US10934255B2, “Nrf and HIF activators/HDAC inhibitors and therapeutic methods using the same” (THE BOARD OF TRUSTEES OF THE UNIVERSITY OF ILLINOIS, priority 2017, dated 2021) are described below.

Structures are written as SMILES. Where only a bound is given, the exact number is not on record here.

One assay deals with T1, Human HDAC1 (Homo sapiens, UniProt Q13547).
T1 construct: Full length with C-terminal GST tag, MW=79.9 kDa; GST (C); host or cells: Sf9 insect cells (baculovirus)
T1 sequence (Q13547 whole entry): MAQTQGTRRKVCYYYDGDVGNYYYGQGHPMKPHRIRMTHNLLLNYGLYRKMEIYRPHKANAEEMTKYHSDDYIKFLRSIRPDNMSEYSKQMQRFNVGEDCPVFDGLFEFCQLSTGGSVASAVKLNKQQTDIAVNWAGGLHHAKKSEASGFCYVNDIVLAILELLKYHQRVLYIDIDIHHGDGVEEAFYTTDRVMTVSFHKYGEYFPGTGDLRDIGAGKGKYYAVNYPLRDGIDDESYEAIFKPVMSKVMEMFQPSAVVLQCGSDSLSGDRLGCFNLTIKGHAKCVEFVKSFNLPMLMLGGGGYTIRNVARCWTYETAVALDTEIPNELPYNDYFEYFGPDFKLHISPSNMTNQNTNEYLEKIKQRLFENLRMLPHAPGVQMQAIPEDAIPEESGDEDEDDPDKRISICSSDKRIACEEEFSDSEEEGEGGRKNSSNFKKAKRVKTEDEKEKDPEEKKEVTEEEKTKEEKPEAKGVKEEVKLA
Description: HDAC1 inhibition assay (fluorogenic p53 peptide substrate). It is filed as biochemical. The following applies: Table 1; performed by Reaction Biology Corporation; read-out: HDAC isoform IC50 (nM) 1. The protocol:
(§1) The HDAC1, 2, 4, 5, 6, 7, 8, 9, 10, and 11 assays used isolated recombinant human protein; HDAC3/NcoR2 complex was used for the HDAC3 assay. Substrate for HDAC1, 2, 3, 6, 10, and 11 assays is a fluorogenic peptide from p53 residues 379-382 (RHKKAc); substrate for HDAC8 is fluorogenic diacyl peptide based on residues 379-382 of p53 (RHKAcKAc). Acetyl-Lys(trifluoroacetyl)-AMC substrate was used for HDAC4, 5, 7, and 9 assays. Compounds were dissolved in DMSO and tested in 10-dose IC50 mode with 3-fold serial dilution starting at 30 μM. Control Compound Trichostatin A (TSA) was tested in a 10-dose IC50 with 3-fold serial dilution starting at 5 μM. IC50 values were extracted by curve-fitting the dose/response slopes. Assays were performed in duplicate and IC50 values are an average of data from both experiments.
Human HDAC1 (GenBank Accession No. NM_004964): Full length with C-terminal GST tag, MW=79.9 kDa, expressed by baculovirus expression system in Sf9 cells. Enzyme is in 50 mM Tris-HCl, pH 8.0, 138 mM NaCl, 20 mM glutathione, and 10% glycerol, and stable for >6 months at −80° C. Purity is >10% by SDS-PAGE. Specific Activity is 20 U/μg, where one U=1 pmol/min under assay condition of 25 mM Tris/Cl, pH8.0, 137 mM NaCl, 2.7 mM KCl, 1 mM MgCl2, 0.1 mg/ml BSA, 100 μM HDAC substrate, and 13.2 ng/μl HDAC1, incubation for 30 min at 30° C.
(§2) Substrate for HDAC1 and HDAC6: Acetylated peptide substrate for HDAC, based on residues 379-382 of p53 (Arg-His-Lys-Lys(Ac)), a site of regulatory acetylation by the p300 and CBP acetyltransferases (lysines 381, 382)1-6, is the best for HDAC from among a panel of substrates patterned on p53, histone H3 and histone H4 acetylation sites7.
(§3) Reaction Buffer: 50 mM Tris-HCl, pH 8.0, 137 mM NaCl, 2.7 mM KCl, 1 mM MgCl2, 1 mg/ml BSA.
HDAC1: 75 nM HDAC1 and 50 μM HDAC substrate are in the reaction buffer and 1% DMSO final. Incubate for 2 hours at 30° C.
(§4) All IC50 values are automatically calculated using the GraphPad Prism version 5 and Equation of Sigmoidal dose-response (variable slope): Y=Bottom+(Top−Bottom)/(1+10^((Log EC50−X)*HillSlope)), where X is the logarithm of concentration, Y is the response, Y starts at Bottom and goes to Top with a sigmoid shape. In most cases, “Bottom” is set 0, and “Top” is set “less than 120%”. This is identical to the “four parameter logistic equation”. IC50 curves also are drawn using the GraphPad Prism, and IC50 values and Hill slopes are provided.
(§5) HDAC Activity Assays: HDAC assay is performed using fluorescently-labeled acetylated substrate, which comprises an acetylated lysine side chain. After incubation with HDAC, deacetylation of the substrate sensitizes the substrate such that, in a second step, treatment with the detection enzyme produces a fluorophore. HDACs 1 and 6 were expressed as full length fusion proteins. Purified proteins were incubated with 50 μM fluorescently-labeled acetylated peptide substrate and test compound for 2 hours at RT in HDAC assay buffer containing 50 mM Tris-HCl (pH 8.0), 137 mM NaCl, 2.7 mM KCl, 1 mM MgCl2, 1% DMSO, and 1% BSA.
(§6) Reactions were terminated by the addition of the Developer after 2 hours, and the development of fluorescence signal, which was relative to the amount of deacetylated peptide, was monitored by time-course measurement of EnVision (PerkinElmer). The HDAC activity was estimated from the slope of time-course measurement of the fluorescence intensity. The slope of no-enzyme control (substrate alone) was served as background, and % Enzyme activity was calculated using background-subtracted slope of no inhibitor control (DMSO) as 100% activity.

A further assay concerns the target T2, Human HDAC6 (Homo sapiens, UniProt Q9UBN7).
T2 construct: Full length with N-terminal GST tag, MW=159 kDa; GST (N); host or cells: Sf9 insect cells (baculovirus)
T2 sequence (Q9UBN7 1-1215): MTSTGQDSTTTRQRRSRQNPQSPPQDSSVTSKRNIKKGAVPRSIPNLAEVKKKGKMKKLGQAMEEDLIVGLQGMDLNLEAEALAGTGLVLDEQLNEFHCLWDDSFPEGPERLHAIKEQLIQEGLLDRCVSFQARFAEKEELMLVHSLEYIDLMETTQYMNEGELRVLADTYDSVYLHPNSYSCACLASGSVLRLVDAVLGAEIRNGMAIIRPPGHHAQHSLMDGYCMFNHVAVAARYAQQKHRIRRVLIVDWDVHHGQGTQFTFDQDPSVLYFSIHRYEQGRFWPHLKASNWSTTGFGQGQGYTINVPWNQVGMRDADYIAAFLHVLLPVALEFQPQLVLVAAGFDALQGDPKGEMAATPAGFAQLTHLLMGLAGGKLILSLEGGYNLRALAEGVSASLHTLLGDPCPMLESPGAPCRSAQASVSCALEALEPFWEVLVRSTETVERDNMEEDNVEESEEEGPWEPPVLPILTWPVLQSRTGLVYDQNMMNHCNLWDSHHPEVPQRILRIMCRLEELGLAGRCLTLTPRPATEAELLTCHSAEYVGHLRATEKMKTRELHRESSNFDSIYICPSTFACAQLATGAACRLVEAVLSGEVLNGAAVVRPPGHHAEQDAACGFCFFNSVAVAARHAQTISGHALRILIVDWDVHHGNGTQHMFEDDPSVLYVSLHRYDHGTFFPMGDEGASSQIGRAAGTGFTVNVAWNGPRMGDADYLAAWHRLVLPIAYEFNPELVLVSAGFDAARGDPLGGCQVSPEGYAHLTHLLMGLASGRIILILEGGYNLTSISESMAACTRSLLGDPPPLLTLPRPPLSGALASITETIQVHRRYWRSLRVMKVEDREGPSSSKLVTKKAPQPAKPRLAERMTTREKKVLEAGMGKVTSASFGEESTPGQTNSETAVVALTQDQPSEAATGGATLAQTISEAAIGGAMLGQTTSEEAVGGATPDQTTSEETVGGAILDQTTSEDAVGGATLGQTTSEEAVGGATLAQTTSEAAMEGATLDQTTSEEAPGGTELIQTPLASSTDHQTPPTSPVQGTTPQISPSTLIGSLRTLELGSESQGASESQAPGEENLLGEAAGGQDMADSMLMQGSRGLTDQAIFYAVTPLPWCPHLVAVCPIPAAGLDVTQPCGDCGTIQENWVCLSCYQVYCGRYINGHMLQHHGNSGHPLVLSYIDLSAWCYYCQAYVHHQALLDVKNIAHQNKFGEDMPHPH
The assay can be described thus: HDAC6 inhibition assay (fluorogenic p53 peptide substrate). It is filed as biochemical. As to conditions: Table 1; performed by Reaction Biology Corporation; read-out: HDAC isoform IC50 (nM) 6. Here is the method: as §1
Human HDAC6 (GenBank Accession No. BC069243): Full length with N-terminal GST tag, MW=159 kDa, expressed by baculovirus expression system in Sf9 cells. Enzyme is in 50 mM Tris-HCl, pH 8.0, 138 mM NaCl, 20 mM glutathione, and 10% glycerol, and stable for >6 months at −80° C. Purity is >90% by SDS-PAGE. Specific Activity is 50 U/μg, where one U=1 pmol/min under assay condition of 25 mM Tris/Cl, pH8.0, 137 mM NaCl, 2.7 mM KCl, 1 mM MgCl2, and 0.1 mg/ml BSA, 30 μM HDAC substrate, and 5 ng/μl HDAC6, incubation for 60 min at 30° C.
as §2, §3
HDAC6: 12.6 nM HDAC6 and 50 μM HDAC substrate are in the reaction buffer and 1% DMSO final. Incubate for 2 hours at 30° C.
as §4, §5, §6

The test system of a further assay is Nrf2. The assay can be described thus: Nrf2 activation, Neh2-luc reporter assay. It is filed as cell-based. As to conditions: measured at 10 μM. Here is the method:
(§7) The present compounds were evaluated for an ability to activate Nrf2 and HIF-1α. Table 1 summarizes Nrf2 activation data obtained in Neh2-luc reporter assay; and HIF1 activation measured in ODD reporter assay.
A general note: Reporter assays use an easily measured gene product as a stand-in for the process of interest.

For another assay, the system named is HIF-1α. Description: HIF1 activation, ODD reporter assay. The following applies: measured at 10 μM. It is filed as cell-based. The protocol: as §7

Turning to `C[N+]1(C)CCC2(CC1)C(=O)N(Cc1ccc(C(=O)NO)cc1)c1ccccc12` [II-ING-109, 1-(4-(Hydroxycarbamoyl)benzyl)-1′,1′-dimethyl-2-oxospiro[indoline-3,4′-piperidin]-1′-ium], the values for the IC50 on Human HDAC1 and on Human HDAC6 were 19700 nM and 18 nM, respectively. The compound further showed a Nrf2 fold activation in the assay on Nrf2 of 1.5 fold. Moreover, the HIF-1α fold activation in the assay on HIF-1α is given as 1.0 fold.
As to `O=C(NO)c1ccc(CN2CC3(CC3)c3cc(F)ccc32)cc1` [II-ING-68, 4-((5′-Fluorospiro[cyclopropane-1,3′-indolin]-1′-yl)methyl)-N-hydroxybenzamide], the IC50 (usually the point on the concentration scale where inhibition reaches its midpoint) came out at 4700 nM on Human HDAC1 and 8.2 nM on Human HDAC6. Also, the fold induction – broadly, the ratio of treated to control signal – at 10 µM in the assay with Nrf2 is 6.2; in the assay on HIF-1α, 5.8.
`O=C(NO)c1ccc(CN2CCc3cc([N+](=O)[O-])ccc32)cc1` [II-ING-57, N-Hydroxy-4-((5-nitroindolin-1-yl)methyl)benzamide]: the results for the 50% inhibitory concentration (IC50) on Human HDAC1 and at Human HDAC6 were 1970 nM and 1.4 nM, respectively. Also, the fold induction at 10 µM is 6.6 in the assay on Nrf2 and 3.9 with HIF-1α.
In the same order, the values of `O=C(NO)c1ccc(CN2CCc3ccc(OCc4ccccc4)cc32)cc1` [II-ING-61, 4-((6-(Benzyloxy)indolin-1-yl)methyl)-N-hydroxybenzamide] are 1850 nM, 25.2 nM, 2.2 and 7.
The like results for `CC1(C)C(=O)N(Cc2ccc(C(=O)NO)cc2)c2ccccc21` [II-ING-101, 4-((3,3-Dimethyl-2-oxoindolin-1-yl)methyl)-N-hydroxybenzamide] were, in that order, 7880 nM, 5.1 nM, 3.4 and 1.
The like results for `O=C(NO)c1ccc(CN2CCc3cc(F)c(Cl)cc32)cc1` [II-ING-56, 4-((6-Chloro-5-fluoroindolin-1-yl)methyl)-N-hydroxybenzamide] were, in that order, 7820 nM, 4.6 nM, 5.5 and 7.8.
With `O=C(NO)c1ccc(CN2CCc3cc(Cl)ccc32)cc1F` [II-ING-51, 4-((5-Chloroindolin-1-yl)methyl)-2-fluoro-N-hydroxybenzamide], the half-inhibitory concentration (IC50) at Human HDAC6 was 40.2 nM. Also, the fold induction at 10 µM in the assay with Nrf2 came to 1.6; in the assay on HIF-1α it was 7.2.
Take `O=C(NO)c1ccc(CNc2nc3ccccc3n2-c2ccccc2)cc1` [II-ING-87, N-hydroxy-4-(((1-phenyl-1H-benzo[d]imidazol-2-yl)amino)methyl)benzamide]: the IC50 was determined as 3230 nM at Human HDAC1 and 13 nM at Human HDAC6. Besides, the fold induction at 10 µM amounted to 1.2 in the assay with Nrf2 and 1 in the assay on HIF-1α.
For the compound `CC1(C)CN(Cc2ccc(C(=O)NO)cc2)c2ccccc21` [II-ING-65, 4-((3,3-Dimethylindolin-1-yl)methyl)-N-hydroxybenzamide], the IC50 was found to be 18700 nM on Human HDAC1 and 24.5 nM at Human HDAC6. The fold induction at 10 µM in the assay with Nrf2 was determined as 1.8; in the assay on HIF-1α, 2.8.
The like results for `O=C(NO)c1cccc(CN2C(=O)C(F)(F)c3ccccc32)c1` [II-ING-100, 3-((3,3-Difluoro-2-oxoindolin-1-yl)methyl)-N-hydroxybenzamide] were, in that order, no less than 30000 nM, 5560 nM, 1.5 and 1.
For `Cn1c(NCc2ccc(C(=O)NO)cc2)nc2cc(Cl)ccc21` [II-ING-85, 4-(((5-chloro-1-methyl-1H-benzo[d]imidazol-2-yl)amino)methyl)-N-hydroxybenzamide], the IC50 on Human HDAC1 came out at 1500 nM; on Human HDAC6 it was 2.7 nM. The fold induction at 10 µM in the assay with Nrf2 was found to be 1.3; in the assay on HIF-1α, 1.1.
The like results for `C[N+]1(C)CCC2(CC1)C(=O)N(Cc1ccc(C(=O)NO)cc1)c1ccccc12` [II-ING-118] were, in that order, 7880 nM, 5.8 nM, 2 and 1.3.
